The record followed here is patent publication US6939890B2, “sPLA2 inhibitors” (Eli Lilly and Company, priority 1999, dated 2005).

Molecules are shown by their SMILES. Where a name gives a salt, the structure may show the parent alone.

Test system in the first series: not given
Assay: not given
Conditions: not given
As usually defined, the melting point is the temperature of the solid-liquid transition. As for `CCc1c(C(=O)C(N)=O)c2c(OCC(=O)N(C)OC)cccc2n1Cc1ccccc1` (as salt: hydrochloride) [Compound 2Ac, 2-[[3-(Aminooxoacetyl)-2-ethyl-1-(phenylmethyl)-1H-indol-4-yl]oxy]-N-(methyl)-N-(methyloxy)acetamide], the melting point lay in the range of 168 to 170 °C. Same read-out and setting: the value for `CCc1c(C(=O)C(N)=O)c2c(OCC(=O)N(C)O)cccc2n1Cc1ccccc1` (as salt: hydrochloride) [Compound 2Ad, 2-[[3-(Aminooxoacetyl)-2-ethyl-1-(phenylmethyl)-1H-indol-4-yl]oxy]-N-(hydroxy)-N-(methyl)acetamide] was 217 °C (dec.); that for `CCONC(=O)COc1cccc2c1c(C(=O)C(N)=O)c(CC)n2Cc1ccccc1` (as salt: hydrochloride) [Compound 2Ae, 2-[[3-(Aminooxoacetyl)-2-ethyl-1-(phenylmethyl)-1H-indol-4-yl]oxy]-N-(ethyloxy)acetamide] was 176 to 178 °C; that for `C=CCONC(=O)COc1cccc2c1c(C(=O)C(N)=O)c(CC)n2Cc1ccccc1` (as salt: hydrochloride) [Compound 2Af, 2-[[3-(Aminooxoacetyl)-2-ethyl-1-(phenylmethyl)-1H-indol-4-yl]oxy]-N-(2-propenyloxy)acetamide] was 175 to 177 °C. On to `CCc1c(C(=O)C(N)=O)c2c(OCC(=O)N(O)C(C)C)cccc2n1Cc1ccccc1` (as salt: hydrochloride) [Compound 2Ag, 2-[[3-(Aminooxoacetyl)-2-ethyl-1-(phenylmethyl)-1H-indol-4-yl]oxy]-N-(hydroxy)-N-(2-propyl)acetamide], for which the melting point is 202 °C (dec.).

Consider `CCc1c(C(=O)C(N)=O)c2c(OCC(=O)NOC(C)(C)C)cccc2n1Cc1ccccc1` (as salt: hydrochloride) [Compound 2Ah, 2-[[3-(Aminooxoacetyl)-2-ethyl-1-(phenylmethyl)-1H-indol-4-yl]oxy]-N-(tert-butyloxy)acetamide], for which the melting point lay in the range of 203 to 205 °C. On the same count and under the same terms, the figure for `CCc1c(C(=O)C(N)=O)c2c(OCC(=O)NOCc3ccccc3)cccc2n1Cc1ccccc1` (as salt: hydrochloride) [Compound 2Aj, 2-[[3-(Aminooxoacetyl)-2-ethyl-1-(phenylmethyl)-1H-indol-4-yl]oxy]-N-(phenylmethyloxy)acetamide] is 167 to 169 °C; for `CCc1c(C(=O)C(N)=O)c2c(OCC(=O)NOc3ccccc3)cccc2n1Cc1ccccc1` (as salt: hydrochloride) [Compound 2Al, 2-[[3-(Aminooxoacetyl)-2-ethyl-1-(phenylmethyl)-1H-indol-4-yl]oxy]-N-(phenyloxy)acetamide] it is 205 °C (dec.); for `CCc1c(C(=O)C(N)=O)c2c(OCC(=O)N(O)C3CCCCC3)cccc2n1Cc1ccccc1` (as salt: hydrochloride) [Compound 2An, 2-[[3-(Aminooxoacetyl)-2-ethyl-1-(phenylmethyl)-1H-indol-4-yl]oxy]-N-(cyclohexyl)-N-(hydroxy)acetamide] it is 210 °C (dec.). The same measure, in the same setting: the value for `CCc1c(C(=O)C(N)=O)c2c(OCC(=O)NOC)cccc2n1Cc1ccccc1` [Compound 2Ab, 2-[[3-(Aminooxoacetyl)-2-ethyl-1-(phenylmethyl)-1H-indol-4-yl]oxy]-N-(methyloxy)acetamide] was 228 °C (dec.); that for `CCc1c(C(=O)C(N)=O)c2c(OCC(=O)N(C)OCc3ccccc3)cccc2n1Cc1ccccc1` [Compound 2Ak, 2-[[3-(Aminooxoacetyl)-2-ethyl-1-(phenylmethyl)-1H-indol-4-yl]oxy]-N-(methyl)-N-(phenylmethyloxy)acetamide] was 186.5 to 188.5 °C; that for `CCc1c(C(=O)C(N)=O)c2c(OCC(=O)N(C)Oc3ccccc3)cccc2n1Cc1ccccc1` [Compound 2Am, 2-[[3-(Aminooxoacetyl)-2-ethyl-1-(phenylmethyl)-1H-indol-4-yl]oxy]-N-(methyl)-N-(phenyloxy)acetamide] was 146 to 147.5 °C.

The compound `CCc1c(CC(N)=O)c2c(OCC(=O)NO)cccc2n1Cc1ccccc1` [Compound 2Ba, 2-[[3-(2-Amino-2-oxoethyl)-2-ethyl-1-(phenylnmethyl)-1H-indol-4-yl]oxy]-N-(hydroxy)acetamide] registered a melting point of 187 to 189 °C.

The next series deals with T1, recombinant human secreted phospholipase A2 (Homo sapiens, UniProt P14555).
T1 sequence (P14555 21-144): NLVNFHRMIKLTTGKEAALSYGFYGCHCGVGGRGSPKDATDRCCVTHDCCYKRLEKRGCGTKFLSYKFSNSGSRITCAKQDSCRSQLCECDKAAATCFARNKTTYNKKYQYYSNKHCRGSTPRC
Kind of series: chromogenic assay for inhibitors of recombinant human secreted phospholipase A2 (diheptanoyl thio-PC/DTNB, 96 well microtiter plates). It counts as biochemical. As to conditions: included in the table for purposes of comparison only. From the text:
The following chromogenic assay procedure was used to identify and evaluate inhibitors of recombinant human secreted phospholipase A2. The assay described herein has been adapted for high volume screening using 96 well microtiter plates. A general description of this assay method is found in the article, “Analysis of Human Synovial Fluid Phospholipase A2 on Short Chain Phosphatidylcholine-Mixed Micelles: Development of a Spectrophotometric Assay Suitable for a Microtiterplate Reader”, by Laure J. Reynolds, Lori L. Hughes, and Edward A Dennis, Analytical Biochemistry, 204, pp. 190-197, 1992 (the disclosure of which is incorporated herein by reference): […]
A measured volume of racemic dipheptanoyl thio PC supplied in chloroform at a concentration of 100 mg/ml is taken to dryness and redissolved in 10 millimolar […]
• 1. […] Read absorbance of wells at 405 nanometers with an automatic plate reader.
All compounds were tested in triplicate. […] Compounds initially found to be active were reassayed to confirm their activity and, if sufficiently active, IC50 values were determined. […] In all cases, % inhibition measured at 405 nanometers generated by enzyme reactions containing inhibitors relative to the uninhibited control reactions was determined. […] IC50 were determined by plotting log concentration versus inhibition values in the range from 10-90% inhibition.
For the compound `CCc1c(C(=O)C(N)=O)c2c(OCC(=O)OC)cccc2n1Cc1ccccc1` [1 (SM), [[3-(2-Amino-1,2-dioxoethyl)-2-ethyl-1-(phenylmethyl)-1H-indol-4-yl]oxy]acetic acid methyl ester], the “inhibiting sPLA2 (statement in words)” value is given as “highly active”.
